IC50 data for 18 compounds are collected here from patent US8901118B2, “Compounds and methods for kinase modulation, and indications therefor” (Plexxikon Inc., priority 2010, dated 2014).

A value given as a limit tells only on which side of the number the result lay.

The target in one assay is T1, BCR-NTRK1 BaF3 cells (Homo sapiens, UniProt P04629).
T1 construct: fused on or other part: P11274 (Breakpoint cluster region protein)
In words: BaF3 BCR-NTRK1 cell proliferation assay (ATPlite). In kind it is cell-based. As to conditions: read-out: Inhibition of Cell Proliferation IC50, BCR/BaF3 TrkA. Here is the method:
Compounds are assessed in a variety of cell based assays. For example BaF3 cells engineered with any of BCR-FMS, BCR-KIT, BCR-FLT3, BCR-NTRK1, BCR-NTRK2, and BCR-NTRK3, are used in cell proliferation assays to assess inhibitory activity of Fms, Kit, Flt-3, TrkA, TrkB, and TrkC, respectively. An MV-4-11 (leukemia) cell proliferation assay is used to assess inhibitory activity in Flt-3, and SKNSH (human neuroblastoma) cell proliferation assay is used to assess efficacy of Fms/Trk inhibitors. Additional cells may be assayed similarly to assess the efficacy of Fms/Trk inhibitors, such as MiaPaCa (human pancreatic cancer) and Capan-1 (human pancreatic carcinoma) cells. Reagent and assay conditions are as follows: • BaF3 cells: • Maintained in RPMI containing 10% FBS, 1% PenStrep, 1% NEAA, and 1% L-Glutamine, supplemented with 1 mg/mL G418 and 5% WEHI-CM (or recombinant murine IL-3). • Confluent cells are split 1:50 to 1:100 every 3-4 days. • MV-4-11 cells: • Maintained in Iscove's Modified Dulbecco's Medium containing 10% FBS. • Confluent cells are split 1:4 every 3-4 days. • SKNSH cells: RPMI containing 10% FBS. On day 1, cells are counted, then centrifuged in a conical tube for 5 minutes at 1000 rpm. The supernatant is removed and cells are re-suspended as follows: • BaF3: resuspend in growth media +1 mg/mL G418 (without WEHFIL-3) to 2×10^5 cells/mL. • MV-4-11: resuspend in growth media to 5×10^5 cells/mL. • SKNSH: resuspend in growth media to 2×10^4 cells/mL. The cells are plated (50 μL, 150 μL for SKNSH cells) in each well of a 96-well dish (Corning 3610) and incubated at 37° C. in 5% CO2 overnight, cells plated to a final concentration of cells as follows: • BaF3: 10,000 cells per well. • MV-4-11: 25,000 cells per well. • SKNSH: 3,000 cells per well. On day 2, compound at a maximum concentration of 5 mM is serially diluted 1:3 for a total of 8 point titration with DMSO as a control. A 1 μL aliquot of each dilution point is added to 249 μL growth media and 50 μL is added to a well containing cells, providing 10 μM compound for the maximum concentration point. The cells are incubated for 3 days at 37° C. in 5% CO2. For SKNSH cells, a 0.75 μL aliquot of appropriate dilution in DMSO is added to 150 μL of cells. On day 5, ATPlite 1 step Luminescence Assay System (Perkin Elmer #6016739) is brought to room temperature along with the cell cultures. ATPlite is added to each well as follows: • BaF3: 25 μL per well. • MV-4-11: 40 μL per well. • SKNSH: 20 μL per well. The cells are incubated at room temperature for 10 minutes, then luminescence is read on Safire reader. The measured luminescence correlates directly with cell number, such that the reading as a function of compound concentration is used to determine the IC50 value.
It is understood that the results of these assays may vary as assay conditions are varied. Inhibition levels determined under the conditions described herein represent a relative activity for the compounds tested under the specific conditions employed. The cell based assays are likely to show variability due to the complexity of the system and the sensitivity thereof to any changes in the assay conditions. […] Results for compounds that are tested and show substantially no inhibition below the highest tested concentration are represented as “-” in the tables below. In some instances, the compounds were not tested in all of the assays, or assay results were not valid, as indicated by NA in the tables below.

The target of another assay is CYP2C19 (Homo sapiens, UniProt P33261). Put plainly: CYP2C19 inhibition (fluorescent substrate CEC). The format is in vitro ADME. Particulars: read-out: Cyp IC50 2C19. The method, then:
CYP (Cytochrome P450) enzymes are the major drug metabolizing enzymes present in the liver. The inhibition of CYP enzyme activity (IC50) for each of CYP1A2, CYP2C19, CYP2C9, CYP2D6, CYP3A4(BFC) and CYP3A4(BQ) is determined for compounds, where inhibition of metabolism of a known substrate leads to a decrease in the fluorescence of the metabolized product. The fluorescence of the product is monitored as a function of compound concentration. Compounds are dissolved in DMSO to a concentration of 100 mM. These are diluted 1 μL into 82 μL of acetonitrile. An 11 μL aliquot of this solution is then added to 204 μL of cofactor mix (1.3% NADPH Regeneration system Solution A, 1.04% NADPH Regeneration system Solution B from BD Biosciences, 5% acetonitrile and 0.05% DMSO). These are then serially diluted 1:1 (160 μL to 160 μL co-factor mix) for a total of 10 points. A 10 μL aliquot of this final mixture is dispensed into 384 well assay plates and incubated for 10 minutes at 37° C. […] Assay plates are incubated at 37° C. (CYP1A2-15 min; CYP2C9-45 min; CYP2C19, 2D6 and 3A4-30 min) and read in a Tecan Safire 2 plate reader (CYP1A2, 2C19 and 3A4 409 ex/460 em; CYP2C9 and 2D6 409 ex/530 em). The signal versus compound concentration is used to determine the IC50. The enzymes and substrates for this assay are obtained from BD Biosciences.

T1 sequence (P04629 510-781): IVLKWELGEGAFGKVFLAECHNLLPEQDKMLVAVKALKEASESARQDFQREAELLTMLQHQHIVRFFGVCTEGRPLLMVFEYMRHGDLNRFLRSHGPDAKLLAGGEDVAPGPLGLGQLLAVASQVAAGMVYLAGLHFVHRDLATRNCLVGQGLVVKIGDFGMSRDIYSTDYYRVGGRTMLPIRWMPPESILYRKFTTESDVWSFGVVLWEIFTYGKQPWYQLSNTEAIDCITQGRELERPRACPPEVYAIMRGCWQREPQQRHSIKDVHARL
Chain of CYP2C19 (P33261 whole entry): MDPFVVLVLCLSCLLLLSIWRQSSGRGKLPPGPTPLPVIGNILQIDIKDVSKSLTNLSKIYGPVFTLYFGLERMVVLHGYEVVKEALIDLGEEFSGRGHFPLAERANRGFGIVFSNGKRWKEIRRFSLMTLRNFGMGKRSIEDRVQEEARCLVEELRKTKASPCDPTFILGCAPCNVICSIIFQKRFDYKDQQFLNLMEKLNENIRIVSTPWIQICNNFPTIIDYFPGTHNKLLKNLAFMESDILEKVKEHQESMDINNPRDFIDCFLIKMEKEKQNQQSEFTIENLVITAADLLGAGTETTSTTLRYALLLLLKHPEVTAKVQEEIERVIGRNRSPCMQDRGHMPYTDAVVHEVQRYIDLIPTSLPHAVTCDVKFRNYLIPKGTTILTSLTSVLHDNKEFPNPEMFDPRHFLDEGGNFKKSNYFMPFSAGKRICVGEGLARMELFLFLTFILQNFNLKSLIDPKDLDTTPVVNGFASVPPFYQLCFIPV

`COc1ccc(Nc2ccc(C(=O)c3c[nH]c4ncnc(NCc5ccc(C(F)(F)F)nc5)c34)c(F)n2)cn1` [Compound P-4071, [2-fluoro-6-[(6-methoxy-3-pyridyl)amino]-3-pyridyl]-[4-[[6-(trifluoromethyl)-3-pyridyl]methylamino]-7H-pyrrolo[2,3-d]pyrimidin-5-yl]methanone]: the IC50 is less than 0.1 µM at BCR-NTRK1 BaF3 cells and greater than 10 µM on CYP2C19.

Regarding `CCNc1ncnc2[nH]cc(C(=O)c3ccc(Nc4ccc(OC)nc4)nc3F)c12` [Compound P-4081, [4-(ethylamino)-7H-pyrrolo[2,3-d]pyrimidin-5-yl]-[2-fluoro-6-[(6-methoxy-3-pyridyl)amino]-3-pyridyl]methanone], the IC50 is less than 0.01 µM at BCR-NTRK1 BaF3 cells and greater than 10 µM at CYP2C19.

Consider `CNc1ncnc2[nH]cc(C(=O)c3ccc(Nc4ccc(OC)nc4)nc3OC)c12` [Compound P-4085, [2-methoxy-6-[(6-methoxy-3-pyridyl)amino]-3-pyridyl]-[4-(methylamino)-7H-pyrrolo[2,3-d]pyrimidin-5-yl]methanone], for which the IC50 on BCR-NTRK1 BaF3 cells was less than 1 µM.

For the compound `CCc1ccc(Nc2ccc(C(=O)c3c[nH]c4ncnc(N)c34)c(F)n2)cn1` [Compound P-4065, (4-amino-7H-pyrrolo[2,3-d]pyrimidin-5-yl)-[6-[(6-ethyl-3-pyridyl)amino]-2-fluoro-3-pyridyl]methanone], the IC50 on BCR-NTRK1 BaF3 cells is less than 0.1 µM; on CYP2C19, greater than 10 µM.

`CCc1ccc(Nc2ccc(C(=O)c3c[nH]c4ncnc(NC(C)C)c34)c(F)n2)cn1` [Compound P-4117, [6-[(6-ethyl-3-pyridyl)amino]-2-fluoro-3-pyridyl]-[4-(isopropylamino)-7H-pyrrolo[2,3-d]pyrimidin-5-yl]methanone]: the IC50 is less than 0.01 µM at BCR-NTRK1 BaF3 cells and greater than 10 µM at CYP2C19.

For the compound `CCCCNc1ncnc2[nH]cc(C(=O)c3ccc(Nc4ccc(OC)nc4)nc3F)c12` [Compound P-4080, [4-(butylamino)-7H-pyrrolo[2,3-d]pyrimidin-5-yl]-[2-fluoro-6-[(6-methoxy-3-pyridyl)amino]-3-pyridyl]methanone], the IC50 on BCR-NTRK1 BaF3 cells is less than 0.01 µM; at CYP2C19, greater than 10 µM.

`CNc1ncnc2[nH]cc(C(=O)c3ccc(NC4CCC(F)(F)CC4)nc3F)c12` [Compound P-4063, [6-[(4,4-difluorocyclohexyl)amino]-2-fluoro-3-pyridyl]-[4-(methylamino)-7H-pyrrolo[2,3-d]pyrimidin-5-yl]methanone]: the IC50 was less than 0.01 µM at BCR-NTRK1 BaF3 cells and greater than 10 µM at CYP2C19.

In the case of `Cc1ccc(Nc2ccc(C(=O)c3c[nH]c4ncnc(NCC5CC5)c34)c(F)n2)cn1` [Compound P-4113, [4-(cyclopropylmethylamino)-7H-pyrrolo[2,3-d]pyrimidin-5-yl]-[2-fluoro-6-[(6-methyl-3-pyridyl)amino]-3-pyridyl]methanone], the results for the IC50 on BCR-NTRK1 BaF3 cells and on CYP2C19 were less than 0.1 µM and greater than 10 µM, respectively.

In the case of `COc1ccc(Nc2ccc(C(=O)c3c[nH]c4ncnc(NC5CCC(F)(F)CC5)c34)c(F)n2)cn1` [Compound P-4056, [4-[(4,4-difluorocyclohexyl)amino]-7H-pyrrolo[2,3-d]pyrimidin-5-yl]-[2-fluoro-6-[(6-methoxy-3-pyridyl)amino]-3-pyridyl]methanone], the IC50 was less than 1 µM on BCR-NTRK1 BaF3 cells and 5 to 20 µM on CYP2C19.

On to `CCCNc1ncnc2[nH]cc(C(=O)c3ccc(Nc4ccc(OC)nc4)nc3F)c12` [Compound P-4068, [2-fluoro-6-[(6-methoxy-3-pyridyl)amino]-3-pyridyl]-[4-(propylamino)-7H-pyrrolo[2,3-d]pyrimidin-5-yl]methanone], for which the values for the IC50 on BCR-NTRK1 BaF3 cells and at CYP2C19 were less than 0.01 µM and greater than 10 µM, respectively.

As to `O=C(c1ccc(NC2CCC(F)(F)CC2)nc1Cl)c1c[nH]c2ncnc(NCC(F)(F)F)c12` [Compound P-4057, [2-chloro-6-[(4,4-difluorocyclohexyl)amino]-3-pyridyl]-[4-(2,2,2-trifluoroethylamino)-7H-pyrrolo[2,3-d]pyrimidin-5-yl]methanone], the figures for the IC50 on BCR-NTRK1 BaF3 cells and on CYP2C19 were greater than 1 µM and greater than 10 µM, respectively.

As for `COCCCNc1ncnc2[nH]cc(C(=O)c3ccc(Nc4ccc(OC)nc4)nc3F)c12` [Compound P-4079, [2-fluoro-6-[(6-methoxy-3-pyridyl)amino]-3-pyridyl]-[4-(3-methoxypropylamino)-7H-pyrrolo[2,3-d]pyrimidin-5-yl]methanone], the IC50 at BCR-NTRK1 BaF3 cells is less than 0.01 µM; at CYP2C19, 5 to 10 µM.

Regarding `CNc1ncnc2[nH]cc(C(=O)c3ccc(NC4CCCCC4)nc3F)c12` [Compound P-4102, [6-(cyclohexylamino)-2-fluoro-3-pyridyl]-[4-(methylamino)-7H-pyrrolo[2,3-d]pyrimidin-5-yl]methanone], the IC50 at BCR-NTRK1 BaF3 cells was less than 1 µM; on CYP2C19, less than 5 µM.

In the case of `COc1ccc(Nc2ccc(C(=O)c3c[nH]c4ncnc(NC5CC5)c34)c(F)n2)cn1` [Compound P-4126, [4-(cyclopropylamino)-7H-pyrrolo[2,3-d]pyrimidin-5-yl]-[2-fluoro-6-[(6-methoxy-3-pyridyl)amino]-3-pyridyl]methanone], the IC50 is less than 0.01 µM on BCR-NTRK1 BaF3 cells and greater than 10 µM on CYP2C19.

Take `CCc1ccc(Nc2ccc(C(=O)c3c[nH]c4ncnc(NC5CCOCC5)c34)c(F)n2)cn1` [Compound P-4116, [6-[(6-ethyl-3-pyridyl)amino]-2-fluoro-3-pyridyl]-[4-(tetrahydropyran-4-ylamino)-7H-pyrrolo[2,3-d]pyrimidin-5-yl]methanone]: the values for the IC50 on BCR-NTRK1 BaF3 cells and on CYP2C19 were less than 0.01 µM and greater than 10 µM, respectively.

In the case of `CCc1ccc(Nc2ccc(C(=O)c3c[nH]c4ncnc(Nc5ccc(C)nc5)c34)c(F)n2)cn1` [Compound P-4086, [6-[(6-ethyl-3-pyridyl)amino]-2-fluoro-3-pyridyl]-[4-[(6-methyl-3-pyridyl)amino]-7H-pyrrolo[2,3-d]pyrimidin-5-yl]methanone], the IC50 at BCR-NTRK1 BaF3 cells is less than 0.01 µM.

Turning to `Clc1cnc2[nH]cc(Cc3cnc(Nc4ccccc4Cl)nc3)c2c1` [Compound P-3015, (2-Chloro-phenyl)-[5-(5-chloro-1H-pyrrolo[2,3-b]pyridin-3-ylmethyl)-pyrimidin-2-yl]-amine], the IC50 at BCR-NTRK1 BaF3 cells is greater than 10 µM.

`Fc1ccccc1Nc1ncc(Cc2c[nH]c3ncc(Cl)cc23)cn1` [Compound P-3014, [5-(5-Chloro-1H-pyrrolo[2,3-b]pyridin-3-ylmethyl)-pyrimidin-2-yl]-(2-fluoro-phenyl)-amine]: the IC50 on BCR-NTRK1 BaF3 cells was greater than 10 µM.
